Assay [1] deals with Polymorphonuclear Leukocytes. Briefly: Mouse Carrageenan Peritonitis (PMN infiltration). The class given is in vivo, Balb/c mice. The conditions noted are these: for % Change / PMN x 10⁻⁵/ml (mean ± S.D.): Table 1, p.o. An excerpt: (§1) In the following Examples where mice were used, they were male Balb/c mice (20-28 g), and where rats were used, they were male Lewis rats (180-210 g). All mice and rats were obtained from Charles River Breeding Laboratories, Kingston, N.Y. Within a single experiment, mice and rats were sex and age matched.
(§2) The compounds of Formula (IA) were used either as the free base or in the appropriate salt form. Levamisole was used as the hydrochloride salt. The compounds were homogenized in 0.5% tragacanth. Compounds were administered by gavage at the indicated dose in a final volume of 10 ml/kg. Nordihydroguaiaretic acid (NDGA) was solubilized in dimethylacetamide and diluted with olive oil for subcutaneous administration.
Mice were pretreated with either the test compound or vehicle one hour before the intraperitoneal injection of a 1.0% carrageenan suspension in saline (0.2 ml/ mouse). Mice were sacrificed by cervical dislocation two hours after injection, and 3.0 ml of phosphate buffered saline, without Ca⁺⁺ or Mg⁺⁺, was injected into the peritoneum. Following massage, a 2.0 ml aliquot of the lavage fluid was removed, and the total cell count determined on a Coulter counter and differential cell count determined by microscopic examination of Giesma-stained slides.

Assay [2] concerns Carrageenan-Induced Cellular Infiltration. Briefly: Carrageenan-induced air pouch inflammation. The class given is in vivo, Lewis rats. The conditions noted are these: 100 mg/kg; 3 hours after carrageenan.
From the text: as §1, §2
(§3) Rats were shaved on the dorsal flank, and then injected subcutaneously one day later with 20 ml of air to form a defined pouch, by the method of Sedgwick et al., J. Pathology, 141, 483-495 (1983). The air pouch was reinflated as necessary over the next 6 days. To assay anti-inflammatory activity, animals were treated orally with test compound or vehicle (10 ml/kg) one hour before injection of 2.0 ml of a 2.0% carrageenan suspension containing 200 units/ml penicillin and 100 »g/ml streptomycin into the air pouch. In other experiments, 5 ml of 0.1% arachidonic acid in 0.2 M bicarbonate buffer was injected two hours after drug treatment. Animals were sacrificed using CO₂ three hours after instillation of irritant. The exudate was then aspirated from the pouch and neutrophil count and differential cell count were measured.

The test system of assay [3] is Arachidonic Acid-Induced Cellular Infiltration. In words: Arachidonic acid-induced air pouch inflammation. The class given is in vivo, Lewis rats. The conditions noted are these: 100 mg/kg; 3 hours after arachidonic acid.
From the text: as §1, §2, §3

Assay [4] concerns Arachidonic Acid-Induced Inflammation of the Mouse Ear. Briefly: Arachidonic acid-induced mouse ear inflammation. The class given is in vivo, Balb/c mice.
From the text: as §1, §2
Arachidonic acid in acetone (2 mg/20 ul) was applied to the inner surface of the left ear. The thickness of both ears was then measured with a dial micrometer one hour after treatment, and the data were expressed as the change in thickness (10⁻³ cm) between treated and untreated ears.
Test compounds were given orally in 0.5% tragacanth at the times indicated in the text prior to the topical application of arachidonic acid.
Parenteral administration of compound was accomplished by subcutaneous injection of solution as indicated.

Assay [5] has as its system Cyclooxygenase. Briefly: Cyclooxygenase activity (PGD2) in 10,000 x g supernatant of RBL-1 cells. The class given is biochemical. The conditions noted are these: text b252; RBL-1 cell extracts; read-out: IC₅₀ PGD₂ production.
Protocol: For in vitro experiments, compounds were dissolved at appropriate concentrations in ethanol or DMSO (dimethylsulfoxide) (final concentration <1.0%) and then diluted to final concentrations using the buffers indicated in the text.
Harvested cells were washed with 50 mM sodium phosphate buffer, pH 7.0, containing 1 mM EDTA and 0.1% gelatin, resuspended in fresh buffer (5 x 10⁷ cells/ml) and disrupted by nitrogen cavitation using the Parr bomb at 750 psi for 10 min. The broken cell extract was then centrifuged at 10,000 x g for 20 minutes and the supernatant centrifuged at 100,000 x g for 60 minutes. Aliquots (0.25 mls) of the supernatant were preincubated with or without drugs for 10 min, after which 10 ul CaCl₂ (50 mM) was added and the reaction was initiated with 2.5 ul of 2.5 mM arachidonic acid-1-¹⁴C (final concentration was 25 mM; specific activity 20,000 dpm/nmole). After incubation for 3 min at 37°C, the reaction was terminated by addition of 2 volumes (0.5 ml) ice cold acetone and the sample was allowed to deproteinize on ice for 10 min prior to centrifugation at 1,000 x g for 10 min. The deproteinized supernatant was adjusted to pH 3.5 with 2N formic acid and extracted with 2 volumes of ice cold ethyl acetate. […] Arachidonic acid, 5-HETE, di-HETE and PGD₂ were quantified with a Berthold LB 2832 autoscanner.
The subject of assay [6] is Experimental Allergic Encephalomyelitis. In words: Experimental allergic encephalomyelitis, hindleg paralysis. The class given is in vivo, Female Lewis rats. The conditions noted are these: 60 Mg/kg/day, p.o. days 0-4, 7-11, 14-18. The protocol:
EAE is induced in Female (Charles River) Lewis rats by a single intradermal injection of 0.1 ml of an encephalitogenic emulsion consisting of equial parts of a 50% w/v homogenate of guinea pig spinal cord and mid-brain in 0.5% aqueous phenol and Freund's complete adjuvant (4 mg/ml killed, dried M. butyricum) into a hindpaw (left) footpad. […] Any animal which becomes paralyzed during the course of the experiment is considered to have developed EAE whether or not the paralysis is permanent. Test compounds are administered daily beginning on the day of injection, for 19 days, exclusive of days 5, 6 12 and 13. Drug activity is determined by comparing the indicidence of EAE (paralysis) of the treated group with a control (vehicle) group. The level of significant difference between the treated groups and control groups is determined by a Chi-square test using a 2x2 contingency table. Body weight changes from day 0 are also statistically compared to the control group using a Student "t" test.

Marks after values point to notes of the source that are not given here.

Regarding `Fc1ccc(-c2nc3n(c2-c2ccncc2)CCS3)cc1` [Compound 1, 5-(4-pyridyl)-6-(4-fluorophenyl)-2,3-dihydroimidazo[2,1-b]thiazole], the ED50 was 43.9 mg/kg in assay [1] (Mus musculus, Leukocyte, po, intraperitoneal carrageenan in mice, read-out: ED₅₀ (inhibition of PMN infiltration)) and 19.5 mg/kg in assay [4] (Mus musculus, po, 1 hour after 2 mg of arachidonic acid to the ear, read-out: ED₅₀ (inhibition of the edematous response of the ear)). The “% Change” value in assay [1] (25 mg/kg) is listed as -27^e %; in assay [1] (50 mg/kg), -56^c %; in assay [1] (100 mg/kg, PMN vs vehicle) it was -77^b %; in assay [4] (Table 7, 50 mg/kg, p.o.), -67^b %. In addition, the “PMN x 10⁻⁵/ml (mean ± S.D.)” value in assay [1] (50 mg/kg) turned out to be 4.84 ± 3.01 x 10⁻⁵/ml; in assay [1] (100 mg/kg, 1 h before i.p. carrageenan, read 2 h later), 2.48 ± 0.98 x 10⁻⁵/ml. Besides, the “Cellular Infiltrate (Total x 10⁻⁶) MN” value is reported as 5.5 ± 3.8^e x 10⁻⁶ in assay [2] and 1.5 ± 1.1^d x 10⁻⁶ in assay [3]. Moreover, the “Cellular Infiltrate (Total x 10⁻⁶) PMN” value is recorded as 2.6 ± 1.3^d x 10⁻⁶ in assay [2] and 1.2 ± 0.7^e x 10⁻⁶ in assay [3]. The “Exudate Volume” value in assay [2] was determined as 1.0 ± 0.9 mL; in assay [3] it was 2.6 ± 0.8 mL. The “Increase in Ear Thickness at 1 Hour (x 10⁻³ cm)” value in assay [4] (Table 7, 50 mg/kg, p.o., 15 minutes before arachidonic acid) is 10.0 ± 1.5 x 10⁻³ cm. Further, the IC50 in assay [5] came out at 100 µM. Moreover, in assay [6], the “HINDLEG PARALYSIS - CUMULATIVE INCIDENCE DAY 9 TO 13” value was 10/12. For the same molecule, the “HINDLEG PARALYSIS - CUMULATIVE INCIDENCE DAY 14 TO 18” value in assay [6] is reported as 0/11**.
